Measurements taken from patent US10822632B2, “Medium for detecting Staphylococcus aureus, sheet for detecting S. aureus comprising same, and method for detecting S. aureus using same” (DAI NIPPON PRINTING CO., LTD., priority 2016, dated 2020).

Tests used:
Test in all cases: Experiment 4: growth on culture sheet containing colistin sodium methanesulfonate
Format in all cases: cell-based
[1] = tested on: Staphylococcus aureus ATCC25923; settings: tested concentration of 0.3 to 4.1 mg/cm^3 (0.1 to 1.6 mg/ml in the sample solution)
Method: (§1) A given type of microbial strains to be tested were inoculated into a liquid medium (SCD broth medium), and culture was conducted at 35° C. for 24 hours to prepare a test microbial suspension. This test microbial suspension was diluted with phosphate buffered physiological saline to adjust the cell density to about 1 to 500 cfu/ml. The resulting test microbial sample (1 ml) was inoculated into the culture layer of the microorganism culture sheet prepared with the use of the medium liquid containing the components shown in Table 1 using a micropipette. The microorganism culture sheet into which the sample had been inoculated was allowed to stand in an incubator and culture was then conducted at 35° C. for 24 or 48 hours. After the completion of culture, the microorganism culture sheet was removed from the incubator. The color of the colony formed in the culture layer of the microorganism culture sheet and the color intensity were visually inspected. Each test microbial strain was subjected to the experiment described above. The names of the microbial strains to be tested used for the experiment and the conditions and the color of the colonies formed by the strains are shown in Table 2.
(§2) A test microbial sample was prepared in the same manner as in Experiment 1. Also, the microorganism culture sheet was prepared in the same manner as in Experiment 1. […]

[2] = tested on: Staphylococcus aureus NBRC100910; settings: tested concentration of 0.3 to 4.1 mg/cm^3 (0.1 to 1.6 mg/ml in the sample solution)
Method: as §1, §2

[3] = tested on: Staphylococcus intermedius ATCC29663; set-up: key: the term “Inhibited” indicates the condition under which the growth was inhibited; a blank column indicates that a colony was formed under normal growth condition; settings: culture 24 hours
Method: as §1
(§3) A test microbial sample was prepared in the same manner as in Experiment 1. Also, the microorganism culture sheet was prepared in the same manner as in Experiment 1. […] With the use of a micropipette, 1 ml of the test microbial sample was inoculated into a culture layer of the microorganism culture sheet. In the same manner as with Experiment 1, the microorganism culture sheet into which the sample had been inoculated was subjected to incubation, culture was conducted for 24 hours, and the color of the colony formed in the culture layer of the microorganism culture sheet and the color intensity were visually inspected. Each test microbial strain was subjected to the experiment described above. The names of the microbial strains to be tested used for the experiment and the conditions of the colonies formed by the strains are shown in Table 5. […] The colistin sodium methanesulfonate concentration indicated in the upper column is mass concentration (mg/cm^3) relative to the total volume of the dried culture layer before the sample was inoculated thereinto, and the concentration indicated in the lower column is mass concentration (mg/ml) relative to the total volume of the sample solution that was inoculated into the culture layer at the time of use.

[4] = tested on: Staphylococcus aureus NBRC12732; set-up: key to Growth condition of the colony: the term “Inhibited” indicates the condition under which the growth was inhibited; a blank column indicates that a colony was formed under normal growth condition; settings: for Growth condition of the colony: culture 24 hours
Method: as §1, §3

[5] = tested on: Staphylococcus carnosus (Derived from roast beef); set-up: key to Growth condition of the colony: the term “Inhibited” indicates the condition under which the growth was inhibited; a blank column indicates that a colony was formed under normal growth condition; settings: for Growth condition of the colony: culture 24 hours
Method: as §1, §3

[6] = tested on: Staphylococcus saprophyticus subsp. saprophyticus NBRC102446; set-up: key to Growth condition of the colony: the term “Inhibited” indicates the condition under which the growth was inhibited; a blank column indicates that a colony was formed under normal growth condition; settings: for Growth condition of the colony: culture 24 hours
Method: as §1, §3

[7] = tested on: Staphylococcus sciuri ATCC29062; set-up: key to Growth condition of the colony: the term “Inhibited” indicates the condition under which the growth was inhibited; a blank column indicates that a colony was formed under normal growth condition; settings: for Growth condition of the colony: culture 24 hours
Method: as §1, §3

[8] = tested on: Staphylococcus xylosus NBRC109770; set-up: key to Growth condition of the colony: the term “Inhibited” indicates the condition under which the growth was inhibited; a blank column indicates that a colony was formed under normal growth condition; settings: for Growth condition of the colony: culture 24 hours
Method: as §1, §3

[9] = colistin 3.3 mg/cm^3 dried culture layer (1.3 mg/ml sample solution)
[10] = colistin 3.6 mg/cm^3 dried culture layer (1.4 mg/ml sample solution)
[11] = colistin 3.8 mg/cm^3 dried culture layer (1.5 mg/ml sample solution)
[12] = colistin 4.1 mg/cm^3 dried culture layer (1.6 mg/ml sample solution)
[13] = colistin 3.1 mg/cm^3 dried culture layer (1.2 mg/ml sample solution)
[14] = mass concentration in the sample solution
[15] = mass concentration relative to total volume of dried culture layer
[16] = colistin 1.3 mg/cm^3 dried culture layer (0.5 mg/ml sample solution)
[17] = colistin 1.5 mg/cm^3 dried culture layer (0.6 mg/ml sample solution)
[18] = colistin 1.8 mg/cm^3 dried culture layer (0.7 mg/ml sample solution)
[19] = colistin 2.0 mg/cm^3 dried culture layer (0.8 mg/ml sample solution)
[20] = colistin 2.3 mg/cm^3 dried culture layer (0.9 mg/ml sample solution)
[21] = colistin 2.5 mg/cm^3 dried culture layer (1 mg/ml sample solution)
[22] = colistin 2.8 mg/cm^3 dried culture layer (1.1 mg/ml sample solution)

Substance: colistin sodium methanesulfonate
- Growth inhibition [1]: did not inhibit the growth
- Growth inhibition [2]: did not inhibit the growth
- Growth condition of the colony [3, 9]: Inhibited
- Growth condition of the colony [3, 10]: Inhibited
- Growth condition of the colony [3, 11]: Inhibited
- Growth condition of the colony [3, 12]: Inhibited
- Growth condition of the colony [4, 13]: Inhibited
- Growth condition of the colony [4, 9]: Inhibited
- Growth condition of the colony [4, 10]: Inhibited
- Growth condition of the colony [4, 11]: Inhibited
- Growth condition of the colony [4, 12]: Inhibited
- Concentration at which growth was inhibited [4, 14]: 1.2 mg/mL
- Concentration at which growth was inhibited [4, 15]: 3.1 mg/mL
- Growth condition of the colony [5, 16]: Inhibited
- Growth condition of the colony [5, 17]: Inhibited
- Growth condition of the colony [5, 18]: Inhibited
- Growth condition of the colony [5, 19]: Inhibited
- Growth condition of the colony [5, 20]: Inhibited
- Growth condition of the colony [5, 21]: Inhibited
- Growth condition of the colony [5, 22]: Inhibited
- Growth condition of the colony [5, 13]: Inhibited
- Growth condition of the colony [5, 9]: Inhibited
- Growth condition of the colony [5, 10]: Inhibited
- Growth condition of the colony [5, 11]: Inhibited
- Growth condition of the colony [5, 12]: Inhibited
- Concentration at which growth was inhibited [5, 14]: ≥ 0.5 mg/mL
- Concentration at which growth was inhibited [5, 15]: ≥ 1.3 mg/mL
- Growth condition of the colony ([6]; colistin 0.5 mg/cm^3 dried culture layer (0.2 mg/ml sample solution)): Inhibited
- Growth condition of the colony ([6]; colistin 0.8 mg/cm^3 dried culture layer (0.3 mg/ml sample solution)): Inhibited
- Growth condition of the colony ([6]; colistin 1.0 mg/cm^3 dried culture layer (0.4 mg/ml sample solution)): Inhibited
- Growth condition of the colony [6, 16]: Inhibited
- Growth condition of the colony [6, 17]: Inhibited
- Growth condition of the colony [6, 18]: Inhibited
- Growth condition of the colony [6, 19]: Inhibited
- Growth condition of the colony [6, 20]: Inhibited
- Growth condition of the colony [6, 21]: Inhibited
- Growth condition of the colony [6, 22]: Inhibited
- Growth condition of the colony [6, 13]: Inhibited
- Growth condition of the colony [6, 9]: Inhibited
- Growth condition of the colony [6, 10]: Inhibited
- Growth condition of the colony [6, 11]: Inhibited
- Growth condition of the colony [6, 12]: Inhibited
- Concentration at which growth was inhibited [6, 14]: ≥ 0.2 mg/mL
- Concentration at which growth was inhibited [6, 15]: ≥ 0.5 mg/mL
- Growth condition of the colony [7, 20]: Inhibited
- Growth condition of the colony [7, 21]: Inhibited
- Growth condition of the colony [7, 22]: Inhibited
- Growth condition of the colony [7, 13]: Inhibited
- Growth condition of the colony [7, 9]: Inhibited
- Growth condition of the colony [7, 10]: Inhibited
- Growth condition of the colony [7, 11]: Inhibited
- Growth condition of the colony [7, 12]: Inhibited
- Concentration at which growth was inhibited [7, 14]: ≥ 0.9 mg/mL
- Concentration at which growth was inhibited [7, 15]: ≥ 2.3 mg/mL
- Growth condition of the colony [8, 20]: Inhibited
- Growth condition of the colony [8, 21]: Inhibited
- Growth condition of the colony [8, 22]: Inhibited
- Growth condition of the colony [8, 13]: Inhibited
- Growth condition of the colony [8, 9]: Inhibited
- Growth condition of the colony [8, 10]: Inhibited
- Growth condition of the colony [8, 11]: Inhibited
- Growth condition of the colony [8, 12]: Inhibited
- Concentration at which growth was inhibited [8, 14]: ≥ 0.9 mg/mL
- Concentration at which growth was inhibited [8, 15]: ≥ 2.3 mg/mL
